Data reported in USRE45128E1, “Cephalotaxane derivatives and their processes of preparation and purification” (IVAX International GmbH, priority 1998, dated 2014).

Tests used:
[1] = Stability of cephalotaxine in acidic solution; type: physicochemical; conditions: several days in solution at pH 1-4 at 20° C. (personal observation)
Experimental: This alkaloid is relatively insensitive to basic media. On the other hand, several authors describe a certain level of sensitivity to acids and to quaternization of the nitrogen with methyl iodide, leading to a racemization by simultaneous inversion of the 3 asymmetric centres and of the nitrogen [D. J. Abraham, R. D. Rosensten and E. L. McGandy, Tetrahedron Letters, 4085 (1969)]. However, a period of several days in solution at pH 1-4 at 20° C. leaves this structure intact (personal observation).

[2] = doses twenty times lower than that for Taxol; cited from earlier work
[3] = test system: chronic myeloid leukaemias that have become resistant to alpha-interferon; conditions: patients suffering from chronic myeloid leukaemias resistant to alpha-interferon; cited from earlier work
[4] = continuous intravenous central infusion (CIVI), patients with CML; cited from earlier work

Structure (SMILES)	structure after a period in acidic solution [1]	daily doses at and above which active [2]	reinduction of full haematological remissions [3] [%]	extra-hematologic toxicity [4]
COC1=C[C@]23CCCN2CCc2cc4c(cc2[C@@H]3C1O)OCO4 (single isomer, unassigned; (-)) [cephalotaxine, (−)-cephalotaxine]	intact			
COC(=O)C[C@](O)(CCCC(C)(C)O)C(=O)OC1C(OC)=C[C@]23CCCN2CCc2cc4c(cc2[C@H]13)OCO4 (stereo partly drawn) [HHT, cephalotaxine, 4-methyl (2R)-2-hydroxy-2-(4-hydroxy-4-methylpentyl)butanedioate (ester)]		≥ 2.5 mg/m^2 of body area per 24 hours	70	very mild
COC(=O)C[C@](O)(CCC(C)(C)O)C(=O)O[C@@H]1C(OC)=C[C@]23CCCN2CCc2cc4c(cc2[C@H]13)OCO4 [HA, harringtonine]				very mild
